This test has as its target DYRK1A (Homo sapiens (Human), UniProt Q13627). Nature of the test: DYRK1A activity Tau assay: pSer396 Tau in SH-SY5Y cells by ELISA / western blot. The class given is cell-based. The conditions noted are these: overnight (16-18 h) exposure.

A word on the EC50: it is the midpoint of the concentration-response curve. A high value points to a need for much substance. Turning to `O=C(NCCN1CCCCC1)c1n[nH]c2ccc(-c3cccc(F)c3F)cc12` [Compound 1266, 5-(2,3-Difluorophenyl)-N-(2-(piperidin-1-yl)ethyl)-1H-indazole-3-carboxamide], the concentration for a half-maximal effect (EC50) was 75 nM.

As for `O=C(NCCN1CCOCC1)c1n[nH]c2ccc(-c3cccc(F)c3F)cc12` [Compound 1268, 5-(2,3-Difluorophenyl)-N-(2-morpholinoethyl)-1H-indazole-3-carboxamide], the response was half-maximal at 23 nM (EC50).

`CCN(CC)Cc1cncc(-c2ccc3[nH]nc(C(=O)NC4CC4)c3c2)c1` [Compound 1270, N-Cyclopropyl-5-(5-((diethylamino)methyl)pyridin-3-yl)-1H-indazole-3-carboxamide] yielded an EC50 of 7 nM.

Regarding `O=C(NC1CC1)c1n[nH]c2ccc(-c3cncc(CN4CCC4)c3)cc12` [Compound 1271, 5-(5-(Azetidin-1-ylmethyl)pyridin-3-yl)-N-cyclopropyl-1H-indazole-3-carboxamide], a half-maximal effect (EC50) was put at 19 nM.

Take `CN1CCC2(CC1)CC(NC(=O)c1n[nH]c3ccc(-c4cncc(F)c4)cc13)C2` [Compound 1277, 5-(5-Fluoropyridin-3-yl)-N-(7-methyl-7-azaspiro[3.5]nonan-2-yl)-1H-indazole-3-carboxamide]: the midpoint of the response, the EC50, lay at 11 nM.

For the compound `O=C(NC1CCCC1)c1n[nH]c2ccc(-c3cncc(Cl)c3)cc12` [Compound 1279, 5-(5-Chloropyridin-3-yl)-N-cyclopentyl-1H-indazole-3-carboxamide], the EC50 amounted to 98 nM.

The compound `O=C(NC1CCCC1)c1n[nH]c2ccc(-c3cncc(F)c3)cc12` [Compound 1280, N-Cyclopentyl-5-(5-fluoropyridin-3-yl)-1H-indazole-3-carboxamide] showed a concentration giving a half-maximal response (EC50) of 32 nM.

Turning to `O=C(NC1CCCCC1)c1n[nH]c2ccc(-c3cncnc3)cc12` [Compound 1281, N-Cyclohexyl-5-(pyrimidin-5-yl)-1H-indazole-3-carboxamide], a half-maximal effect (EC50) was put at 64 nM.

Take `O=C(NC1CCCCC1)c1n[nH]c2ccc(-c3cncc(F)c3)cc12` [Compound 1282, N-Cyclohexyl-5-(5-fluoropyridin-3-yl)-1H-indazole-3-carboxamide]: the 50% effective concentration (EC50) stood at 22 nM.

`O=C(NC1CCC(F)(F)CC1)c1n[nH]c2ccc(-c3cncc(F)c3)cc12` [Compound 1284, N-(4,4-Difluorocyclohexyl)-5-(5-fluoropyridin-3-yl)-1H-indazole-3-carboxamide] yielded an EC50 of 17 nM.

As to `CN1CC2(CCC(NC(=O)c3n[nH]c4ccc(-c5cncc(F)c5)cc34)CC2)C1` [Compound 1289, 5-(5-Fluoropyridin-3-yl)-N-(2-methyl-2-azaspiro[3.5]nonan-7-yl)-1H-indazole-3-carboxamide], the half-maximal effective concentration (EC50) is 29 nM.

The compound `CN1CCC(NC(=O)c2n[nH]c3cc(F)c(-c4cccnc4)cc23)CC1` [Compound 1290, 6-Fluoro-N-(1-methylpiperidin-4-yl)-5-(pyridin-3-yl)-1H-indazole-3-carboxamide] gave an EC50 of 21 nM.

For the compound `CCN1CCC(NC(=O)c2n[nH]c3ccc(-c4cncc(Cl)c4)cc23)CC1` [Compound 1291, 5-(5-Chloropyridin-3-yl)-N-(1-ethylpiperidin-4-yl)-1H-indazole-3-carboxamide], the EC50 is 39 nM.

As to `CCN1CCC(NC(=O)c2n[nH]c3ccc(-c4cncc5ccccc45)cc23)CC1` [Compound 1292, N-(1-Ethylpiperidin-4-yl)-5-(isoquinolin-4-yl)-1H-indazole-3-carboxamide], a half-maximal response (EC50) required 74 nM.

In turn, `CCN1CCC(NC(=O)c2n[nH]c3ccc(-c4cnc5ccccc5c4)cc23)CC1` [Compound 1294, N-(1-Ethylpiperidin-4-yl)-5-(quinolin-3-yl)-1H-indazole-3-carboxamide] displayed an EC50 of 238 nM.

`CCN1CCC(NC(=O)c2n[nH]c3ccc(-c4cnc5ccc(F)cc5c4)cc23)CC1` [Compound 1295, N-(1-Ethylpiperidin-4-yl)-5-(6-fluoroquinolin-3-yl)-1H-indazole-3-carboxamide]: the EC50 was determined as 340 nM.

(Values after patent publication US10669240B2, “5-substituted indazole-3-carboxamides and preparation and use thereof” (Samumed, LLC, priority 2014, dated 2020).)
